The nature of series [1]: Acute toxicity on intravenous administration in mice. Particulars: mouse, in vivo, administered intravenously, read-out: DL50 (the source's name).
The next series has as its system Candida krusei. Kind of series: Sensitivity of Candida krusei strains. Format: cell-based. From the text: (§1) There is a different sensitivity of different strains, for example Candida sp. to the N-methylglucamine salt of the N-glycosyl derivative of amphotericin B and Fungizone. Statistically, the amount of to Fungizone insensitive strains is much higher than the amount of to N-methylglucaminesalt of the said derivative insensitive strains. This especially concerns Candida albicans strains ZM, HM, and 1/75, Candida tropicalis strains JD and 20/75 and Candida krusei strains TS and 16/75, which are insensitive to Fungizone, but sensitive to N-methylglucamine salt of N-glycosyl derivative of amphotericin B.

Series [2] relates to Candida albicans. Kind of series: Sensitivity of Candida albicans strains. The class given is cell-based.
Text: as §1

For a further series, the system named is Aspergillus fumigatus. Kind of series: Protection of mice in generalized aspergillosis. Format: in vivo. Particulars: for ED50: read-out: Average protective DP50 doses, generalized aspergillosis. As for the experimental part: (§2) Average protective DP50 doses
(§3) 24 hours in a case of genera-

Series [3] can be described thus: Stability on storage at different temperatures within 6 months (retained biological activity). The conditions noted are these: storage within 6 months, initial biological activity assumed as 100%, 262800 min.
For series [4], the system named is Candida albicans. The series can be described thus: Experimental chemotherapy of Candida albicans infected mice. Format: in vivo. Particulars: Fungizone = 1. The source says: The relative activity index representing the antibiotic activity in experimental chemotherapy of Candida albicans infected mice is much more advantageous for the N-methylglucamine salts of the N-glycosyl derivatives of polyene macrolides than for Fungizone/Table 4/.

Series [5] can be described thus: Selective toxicity: potassium ion effluence from human erythrocytes versus Saccharomyces cerevisiae cells. Particulars: human erythrocytes vs saccharomyces cerevisiae; 50% effluence of potassium ions from human erythrocytes / from Saccharomyces cerevisiae cells; column head is drawing 1; read-out: Selective toxicity index EK50/DK50. The class given is cell-based. From the text: (§4) The data representing the selective toxicity are also more advantageous for the N-methylglucamine salt of N-glycosyl derivatives of polyene macrolides than for Fungizone. The indices of selective toxicity EK50 /DK50 and EH50 /DK50, illustrating the ratio of the minimal antibiotic concentration causing 50% effluence of the potassium ions from erythrocytes of human blood/EK50 /and the minimal concentration of antibiotic causing 50% hemolysis of erythrocytes/EH50 /to the minimal antibiotic concentration causing 50% effluence of the potassium ions from Saccharomyces cerevisiae cells/DK50 /are compared in Table 6.

Series [6] in a line: Presence of antibiotic in serum after intravenous administration to rats. Format: in vivo. The source says:
In intravenous administration to rats of N-methylglucamine salts of polyene macrolide N-glycosyl derivatives as compared to Fungizone the effect is much more advantageous for the N-methylglucamine salts because the presence of antibiotic in the serum after administration can be found longer that in the case of Fungizone/Table 5/.

In a further series the test system is Candida tropicalis. Kind of series: Sensitivity of Candida tropicalis strains. The class given is cell-based.
Text: as §1

The test system of another series is Geotrichum candidum. Kind of series: Protection of mice in generalized geotrichosis. Format: in vivo. Particulars: for in vivo activity compared with Fungizone (in words), geotrichosis: generalized geotrichosis caused by Geotrichum candidum; for ED50: read-out: Average protective DP50 doses, generalized geotrichosis. Here is the method: as §2, §3
Series [7] relates to Torula sp., Geotrichum candidum and Cryptococcus neoformans. The series can be described thus: In vitro antifungal activity in comparison with Fungizone (in words). Format: cell-based. The source says:
The in vitro activities of the N-methylglucamine salts of the N-glycosyl derivative of amphotericin B and Fungizone against some fungi are compared in Table 3.

Series [8] in a line: Selective toxicity: hemolysis of human erythrocytes versus potassium ion effluence from Saccharomyces cerevisiae cells. The class given is cell-based. Particulars: human erythrocytes vs saccharomyces cerevisiae; 50% hemolysis of human erythrocytes / 50% potassium effluence from Saccharomyces cerevisiae cells; column head is drawing 2; read-out: Selective toxicity index EH50/DK50.
Text: as §4

A short description of series [9]: Biological activity in U/mg. Format: cell-based.
A short description of a further series: pH of 1% water solution. The class given is physicochemical.
For series [10] the following is noted: prior art; cited from earlier work.
Setting [11] is: aspergillosis caused by Aspergillus fumigatus.

Counter-ions that a name gives are not always drawn. Like-named read-outs stand apart in the source and are kept apart here.

Take `C[C@@H]1[C@H](O)[C@@H](C)/C=C/C=C/C=C/C=C/C=C/C=C/C=C/[C@H](O[C@@H]2O[C@H](C)[C@@H](O)[C@H](NC3O[C@H](CO)[C@@H](O)[C@H](O)[C@H]3O)[C@@H]2O)C[C@@H]2O[C@](O)(C[C@@H](O)C[C@@H](O)[C@H](O)CC[C@@H](O)C[C@@H](O)CC(=O)O[C@H]1C)C[C@H](O)[C@H]2C(=O)O` (stereo partly shown) [N-methylglucamine salt of N-glycosyl derivative of amphotericin B]: the LD50 in series [1] is 12.1 to 14.3 mg/kg. The sensitivity of strain result with Candida krusei (Candida krusei strain 16/75), in the series on Candida krusei (Candida krusei strain TS), in the series with Candida albicans [2] (Candida albicans strain 1/75), in the series on Candida albicans [2] (Candida albicans strain HM), in the series on Candida albicans [2] (Candida albicans strain ZM) and in the series with Candida tropicalis (Candida tropicalis strain 20/75) was “sensitive” each time. In addition, the sensitivity of strain entry in the series on Candida tropicalis (Candida tropicalis strain JD) is recorded as “sensitive”. In addition, the “in vivo activity compared with Fungizone (in words), aspergillosis” value in the series with Aspergillus fumigatus (setting [11]) is “corresponds to activity of Fungizone”. In addition, the ED50 in the series with Aspergillus fumigatus (mice, aspergillosis caused by Aspergillus fumigatus) was 22.7 mg/kg; in the series with Geotrichum candidum (mice, geotrichosis caused by Geotrichum candidum) it was 17.9 mg/kg. Also, the “Biological activity in % at +37° C.” value in [3] (+37° C.) is given as 77.0%. Also, the “Biological activity in % at +50° C.” value in [3] (+50° C.) stood at 79.8%. In addition, in series [3] (RT), the “Biological activity in % at RT” value was determined as 83.1%. Further, the “Relative activity index in Candida albicans mice infection” value with Candida albicans [4] worked out at 2.35. The selectivity ratio in series [5] was 1.37; in series [8], 24. In series [6], the “Time of the presence of an antibiotic in serum after 1/5 DL50 dose administration” value is 15 min. Besides, in the series with Geotrichum candidum, the “in vivo activity compared with Fungizone (in words), geotrichosis” value was “corresponds to activity of Fungizone”. For the same compound, the “antifungal activity in comparison with Fungizone (in words)” value in series [7] is “exhanced antifungal activity”. Also, the amount remaining (usually the share of the starting amount still present when the sample was taken) at 4380 h in “physchem” came to 81.2%.
For the compound `C[C@@H]1[C@H](O)[C@@H](C)/C=C/C=C/CC/C=C/C=C/C=C/C=C/[C@H](O[C@@H]2O[C@H](C)[C@@H](O)[C@H](NC3O[C@H](CO)[C@@H](O)[C@H](O)[C@H]3O)[C@@H]2O)C[C@@H]2O[C@](O)(C[C@@H](O)[C@H](O)CC[C@@H](O)C[C@@H](O)C[C@@H](O)CC(=O)O[C@H]1C)C[C@H](O)[C@H]2C(=O)O` (stereo partly shown) [N-methylglucamine salt of N-glycosyl derivative of nystatin] [listing 1 of 2 here], the LD50 in [1] was determined as 19 mg/kg. The ED50 in the series with Aspergillus fumigatus (Aspergillus fumigatus) was determined as 6.28 mg/kg; in the series with Geotrichum candidum (Geotrichum candidum) it was 4.49 mg/kg. Also, the selectivity ratio stood at 17.3 in [5] and 45 in [8].
The compound `C[C@@H]1[C@H](O)[C@@H](C)/C=C/C=C/CC/C=C/C=C/C=C/C=C/[C@H](O[C@@H]2O[C@H](C)[C@@H](O)[C@H](NC3O[C@H](CO)[C@@H](O)[C@H](O)[C@H]3O)[C@@H]2O)C[C@@H]2O[C@](O)(C[C@@H](O)[C@H](O)CC[C@@H](O)C[C@@H](O)C[C@@H](O)CC(=O)O[C@H]1C)C[C@H](O)[C@H]2C(=O)O` (stereo partly shown) [N-methylglucamine salt of N-glycosyl derivative of nystatin] [listing 2 of 2 here] displayed a Biological activity in [9] of 1780 U/mg. Also, the “in vivo activity compared with Fungizone (in words), aspergillosis” value in the series with Aspergillus fumigatus (setting [11]) is on record as “higher activity than Fungizone”. The “pH 1% water solution” value in “pH of 1% water solution” is listed as 8.3. Also, in the series on Candida albicans [4], the “Relative activity index in Candida albicans mice infection” value is 2.41. Also, in series [6], the “Time of the presence of an antibiotic in serum after 1/5 DL50 dose administration” value stood at 30 min. The “in vivo activity compared with Fungizone (in words), geotrichosis” value in the series on Geotrichum candidum is reported as “higher activity than Fungizone”. Further, the Solubility in water in “Solubility in water” was above 15%.
`C[C@@H]1[C@H](O)[C@@H](C)/C=C/C=C/CC/C=C/C=C/C=C/C=C/[C@H](O[C@@H]2O[C@H](C)[C@@H](O)[C@H](NC3O[C@H](CO)[C@@H](O)[C@H](O)[C@H]3O)[C@@H]2O)C[C@@H]2O[C@](O)(C[C@@H](O)[C@H](O)CC[C@@H](O)C[C@@H](O)C[C@@H](O)CC(=O)O[C@H]1C)C[C@H](O)[C@H]2C(=O)O` (stereo partly shown) [Sodium salt of N-glycosyl derivative of nystatin] [reference compound] displayed a Biological activity in series [9] of 1296 U/mg. Moreover, in “pH of 1% water solution”, the “pH 1% water solution” value came out at 9.7. The Solubility in water in “Solubility in water” is on record as 4-10%.
Regarding `COC(=O)[C@H]1[C@@H]2C[C@@H](O[C@@H]3O[C@H](C)[C@@H](O)[C@H](N)[C@@H]3O)/C=C/C=C/C=C/C=C/C=C/C=C/C=C/[C@H](C)[C@@H](O)[C@@H](C)[C@H](C)OC(=O)C[C@H](O)C[C@H](O)CC[C@@H](O)[C@H](O)C[C@H](O)C[C@](O)(C[C@@H]1O)O2` [hydrochloride of methyl esters of amphotericin B], the “solubility in water (in words, from literature)” value in series [10] is on record as “forms in water merely micelle”.

The record behind these values is US4195172A.
